Experimental data: patent US20090048285A1, “Pyrrolopyridines Useful in the Treatment of Inflammation” (priority 2005, published 2009)
pIC50: −log10 of the molar value.

Target: T1, mPGES-1 (Homo sapiens, UniProt O14684)
T1 construct: made in house; host or cells: E. coli (membrane fraction)
T1 sequence (O14684 1-152): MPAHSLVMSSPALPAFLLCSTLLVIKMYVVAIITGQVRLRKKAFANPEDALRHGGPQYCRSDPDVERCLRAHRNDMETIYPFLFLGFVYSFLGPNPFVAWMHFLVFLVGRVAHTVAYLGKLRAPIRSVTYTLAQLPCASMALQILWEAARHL
Test: mPGES-1 assay: conversion of PGH2 to PGE2, HPLC analysis
Type: biochemical
Conditions: mPGES-1 expressed in E. coli; 25 min preincubation with inhibitor, 60 s with PGH2, room temperature
Protocol: In the assay in PGES-1 catalyses the reaction where the substrate PGH2 is converted to PGE2. mPGES-1 is expressed in E. coli and the membrane fraction is dissolved in 20 mM NaPi-buffer pH 8.0 and stored at −80° C. In the assay mPGES-1 is dissolved in 0.1M KPi-buffer pH 7.35 with 2.5 mM glutathione. The stop solution consists of H2O/MeCN (7/3), containing FeCl2 (25 mM) and HCl (0.15 M). The assay is performed at room temperature in 96-well plates. Analysis of the amount of PGE2 is performed with reversed phase HPLC (Waters 2795 equipped with a 3.9×150 mm C18 column). The mobile phase consists of H2O/MeCN (7/3), containing TFA (0.056%), and absorbance is measured at 195 nm with a Waters 2487 LTV-detector.
The following is added chronologically to each well: • 1. 100 μL mPGES-1 in KPi-buffer with glutathione. Total protein concentration: 0.02 mg/mL. • 2. 1 μL inhibitor in DMSO. Incubation of the plate at room temperature for 25 minutes. • 3. 4 μL of a 0.25 mM PGH2 solution. Incubation of the plate at room temperature for 60 seconds. • 4. 100 μL stop solution. • 180 μL per sample is analyzed with HPLC.

Row | pIC50 | Compound
1 | 6.12 | CC(C)Oc1ccc(-n2c(C(=O)O)cc3c(-c4ccc(C(F)(F)F)cc4)nc(Cl)cc32)cc1 [Example 3, 6-Chloro-1-(4-isopropoxyphenyl)-4-(4-trifluoromethylphenyl)pyrrolo[3,2-c]pyridine-2-carboxylic acid]
2 | 5.64 | CC(C)Oc1ccc(-n2c(C(=O)O)cc3cc(Oc4cccc(C(F)(F)F)c4)ncc32)cc1 [Example 1, 1-(4-Isopropoxyphenyl)-5-(3-trifluoromethylphenoxy)pyrrolo[2,3-c]pyridine-2-carboxylic Acid]
